Experimental data as given in paper PMC11412156 (Journal of medicinal chemistry, 2024).

How the values were obtained:
[1] = target: T1, HDAC8 (Homo sapiens, UniProt Q9BY41); assay: HDAC enzyme-based fluorogenic assay, HDAC8; assay type: biochemical
T1 sequence (Q9BY41 1-377): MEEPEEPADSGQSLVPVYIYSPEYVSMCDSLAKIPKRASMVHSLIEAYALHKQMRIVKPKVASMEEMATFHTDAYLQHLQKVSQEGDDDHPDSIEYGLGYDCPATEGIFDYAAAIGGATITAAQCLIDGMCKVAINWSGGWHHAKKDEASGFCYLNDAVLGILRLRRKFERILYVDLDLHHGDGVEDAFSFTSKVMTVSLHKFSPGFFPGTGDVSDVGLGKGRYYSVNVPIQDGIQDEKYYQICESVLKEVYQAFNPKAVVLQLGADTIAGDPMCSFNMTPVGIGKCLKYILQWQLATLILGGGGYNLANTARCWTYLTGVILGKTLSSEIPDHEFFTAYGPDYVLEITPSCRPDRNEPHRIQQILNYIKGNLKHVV

[2] = target: T2, HDAC11 (Homo sapiens, UniProt Q96DB2); assay: HDAC enzyme-based fluorogenic assay, HDAC11; assay type: biochemical
T2 sequence (Q96DB2 1-347): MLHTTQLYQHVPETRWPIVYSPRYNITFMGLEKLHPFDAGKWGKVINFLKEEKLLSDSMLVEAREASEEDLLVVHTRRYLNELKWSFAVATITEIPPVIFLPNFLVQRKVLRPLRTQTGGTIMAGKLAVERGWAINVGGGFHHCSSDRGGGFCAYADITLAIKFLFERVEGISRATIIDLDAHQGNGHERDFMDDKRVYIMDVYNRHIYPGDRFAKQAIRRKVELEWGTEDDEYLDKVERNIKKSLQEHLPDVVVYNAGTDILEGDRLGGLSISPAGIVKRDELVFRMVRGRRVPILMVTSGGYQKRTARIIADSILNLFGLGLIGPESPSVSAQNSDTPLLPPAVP

[3] = test system: acetylation of α-tubulin and histone H3 in THP-1 cell; assay: Western blot of acetylation of α-tubulin and histone H3 in THP-1 cell; assay type: cell-based; conditions: 1 μM and 2 μM, 24 h
[4] = Plasma protein binding by equilibrium dialysis; assay type: in vitro ADME; conditions: rat
[5] = test system: xylene-induced ear swelling inflammation in mice; assay: Xylene-induced ear swelling inflammation model in mice; assay type: in vivo, Kunming mice; conditions: Table 7 dose study
[6] = test system: formalin-induced inflammatory pain in mice; assay: Formalin-induced inflammatory pain model in mice; assay type: in vivo, Kunming mice; conditions: for pain response, second phasic response: dose study, Figure 15, compared with the model group
[7] = test system: LPS-induced RAW264.7 cells; assay: Inflammatory factors and iNOS in LPS-induced RAW264.7 cells; assay type: cell-based
[8] = Acute toxicity test; conditions: in vivo

Which IC50 [1] does the source give for O=C(CCCCCCNC(=O)[C@H]1CCCN(C(=O)c2ccc(NC(=O)Nc3ccc(Cl)c(F)c3)c(F)c2)C1)NO [Compound 28g, (S)-1-(4-(3-(4-Chloro-3-fluorophenyl)ureido)-3-fluorobenzoyl)-N-(7-(hydroxyamino)-7-oxoheptyl)piperidine-3-carboxamide] here?
Its IC50 is 62 nM.

And the IC50 [2]?
Its IC50 is 464 nM.

What about the “acetylation of histone H3” value [3] of the same compound?
Its value is “without affecting histone H3”.

What about the “acetylation of α-tubulin” value [3] of the same compound?
The value was “induced an increase in acetylation of α-tubulin”.

What about the fraction unbound [4] of the same compound?
The fraction unbound was 0.113.

What about the Inhibition rate ([5]; 10 mg/kg by gavage for 7 days) of the same compound?
The Inhibition rate was 44.39%.

And the Swelling degree ([5]; 10 mg/kg by gavage for 7 days)?
The Swelling degree was 8.7 ± 1.7 mg.

What about the Swelling rate ([5]; 10 mg/kg by gavage for 7 days) of the same compound?
The Swelling rate was 69.39%.

What about the Inhibition rate ([5]; 30 mg/kg by gavage for 7 days) of the same compound?
Its Inhibition rate is 67.17%.

And the Swelling degree ([5]; 30 mg/kg by gavage for 7 days)?
The Swelling degree was 5.1 ± 0.9 mg.

What about the Swelling rate ([5]; 30 mg/kg by gavage for 7 days) of the same compound?
The Swelling rate was 39.50%.

What about the “pain response, second phasic response” value ([6]; 10 mg/kg) of the same compound?
The value was “reduced the pain response”.

What about the “pain response, second phasic response” value ([6]; 30 mg/kg (high-dose)) of the same compound?
Its value is “significantly reduced the pain response”.

What about the “pain response time, first phasic response” value ([6]; mice, 30 mg/kg intraperitoneally, Figure 13) of the same compound?
Its value is “did not significantly reduce the pain response time”.

What about the “levels of gene expression of iNOS” value ([7]; LPS-induced RAW264.7 cells, western blot) of the same compound?
Its value is “suppressed”.

What about the “levels of IL-6, IL-1β, TNF-α and NO” value ([7]; RAW264.7 cells preconditioned 1–100 µg/mL for 12 h, then LPS 1 µg/mL 12 h, ELISA) of the same compound?
The value was “significantly reversed this change”.

And the “safety in acute toxicity test” value [8]?
The value was “good safety”.

What does the source list for O=C(CCCCCCNC(=O)[C@H]1CCCN(C(=O)c2ccc(NC(=O)Nc3cc(F)cc(F)c3)c(F)c2)C1)NO [Compound 28j, (S)-1-(4-(3-(3,5-Difluorophenyl)ureido)-3-fluorobenzoyl)-N-(7-(hydroxyamino)-7-oxoheptyl)piperidine-3-carboxamide]?
IC50 [1]: 72 nM; IC50 [2]: 1050 nM; fraction unbound [4]: 0.119
